One data set has as its system AMPK. The data set can be described thus: AMPK phosphorylation in mosquito midgut. It is filed as in vivo, Anopheles stephensi. The following applies: midguts of ABA-treated, P. falciparum-fed mosquitoes. As for the experimental part:
Fold change is shown in levels of phosphorylated AMPK (FIG. 13A), and gsk3 (FIG. 13B) in the midguts of ABA-treated, P. falciparum-fed mosquitoes compared to controls. Each dot represents one replicate of 15 pooled midguts. Data were analyzed by one sample t-test. * p<0.05.

Data set [1] is described as follows: Daily monitoring of water consumption, body weight and condition of mice. It is filed as in vivo. The conditions noted are these: infected CD1 mice. On the procedure:
6-8 week old female CD1 mice (Jackson) were housed four to a cage and provided with unsupplemented water or water supplemented with 2.56 mM (±)-abscisic acid (CAS Registry Number 14375-45-2) obtained from Sigma-Aldrich (Catalog No. A1049). Water and supplemented water were changed daily. On day 3 of supplementation, mice were injected intraperitoneally with 5×10^6 P. yoelii 17XNL-infected RBCs. Mouse weight, water consumption per cage, and parasitemia were monitored daily. Parasitemia was determined from thin blood films stained with Giemsa. Parasitemia was measured as the percentage of infected RBCs divided by total RBCs, while gametocytemia was measured as the proportion of gametocyte-containing RBCs of total infected RBCs. Four mice were used per group in replicated studies. Daily parasitemias and gametocytemias were analyzed by unpaired t-test.

The subject of the next data set is APL1. The data set can be described thus: APL1 expression in mosquito midgut. Format: in vivo, Anopheles stephensi. The following applies: 100 nM ABA, 4 and 8 hours post-feeding. As for the experimental part:
For mosquito immune gene expression, 20 midguts were dissected from mosquitoes in each treatment group at 1, 2, 4, 6, 8 and 24 hours post-feeding. Midguts were sonicated and stored in Trizol at −20° C. for up to a week before RNA was extracted according to manufacturer's instructions. cDNA synthesis was carried out using QantiTect Reverse Transcription Kit (Qiagen) and 200 ng of cDNA used per reaction for qRT-PCR with Sybr Green (Applied Biosystems). Fold changes in expression levels were calculated using the comparative threshold cycle method. Data were normalized to the housekeeping gene ribosomal protein S7 and to the control treatment. Primers and cycling conditions for AsNOS, defensin, LRIM, TEP1, and APL1 were as previously described (Hauck E S, et al. Microbes Infect. 2013; 15:775-87). […] Samples were analyzed in triplicate with 250 ng of cDNA per reaction to confirm uniformity of amplification. […] All expression data were analyzed by one sample t-test.
Transcript levels of a panel of immune genes previously described to play a role in the mosquito immune response to malaria parasites were examined. […] Mosquitoes were provided with a P. falciparum-infected bloodmeal supplemented with 100 nM ABA or with an equivalent volume of diluent as control, then analyzed at 1-24 hours post feeding.

The test system of another data set is TAK. Put plainly: TAK phosphorylation in mosquito midgut. Format: in vivo, Anopheles stephensi. The following applies: ABA-supplemented parasite-fed mosquito midguts. As for the experimental part: FIG. 11A-D illustrate that ABA decreases P. falciparum infection by increasing TAK phosphorylation. […] Each dot represents one replicate of 15 pooled midguts. […] Phosphorylated TAK levels were analyzed by one sample t-test, NOS expression by Wilcoxon matched-pairs signed rank test, and infection prevalence by Fisher's exact test. * p<0.05.

The next data set deals with IgG1 and IgG2a. Put plainly: IgM and IgG antibody isotype concentrations in mouse plasma. Format: in vivo, mice. The conditions noted are these: days 9, 11 and 13 post-infection. On the procedure: FIG. 24 illustrates that ABA supplementation increases levels of IgG1 and IgG2a in plasma. Concentrations are shown of IgM and IgG antibody isotypes in mouse plasma with and without ABA supplementation on days 9, 11 and 13 post-infection with P. yoelii 17XNL. Data were analyzed by unpaired t-test.

Another data set relates to liver. The data set can be described thus: Liver histology scoring. It is filed as in vivo, mice. On the procedure: Mice were euthanized on day 7 post-infection. Blood was collected by heart puncture, spun at 8,000 rpm for 8 minutes and the plasma collected for ABA quantification. Livers and spleens were collected, retained in 10% formalin for 24 hours and then stored in 70% ethanol before sectioning and staining with hematoxylin and eosin. Liver sections were blindly scored on a scale from 0 to 3 for pigment levels, Kupffer cell density, portal tract inflammation, hemozoin deposition, extramedullary hematopoiesis, sinusoidal leukocyte density, sinusoidal adherence of leukocytes, and presence of microabscesses. Spleen sections were blindly scored on a scale from 0 to 3 for hyperplasia, extramedullary hematopoiesis, pigment, and levels of histiocytes and neutrophils. Pathology scores of control and treated mice were analyzed by unpaired t-test.

The test system of a further data set is MAPK (erk, jnk, p38). Put plainly: MAPK phosphorylation in mosquito midgut. The following applies: 0 to 4 hours. It is filed as in vivo, Anopheles stephensi.
The next data set relates to P. falciparum NF54. Put plainly: P. falciparum asexual growth assay. The following applies: 10 nM or 100 nM ABA, 48 and 96 hours, relative to untreated control. It is filed as cell-based. As for the experimental part:
P. falciparum NF54 cultures were synchronized and aliquots plated in complete RPMI 1640 with HEPES, hypoxanthine, and 10% heat inactivated human serum. Parasites were treated with 10 nM ABA, 100 nM ABA, or a diluent control and incubated at 37° C. for 48 or 96 hours before culture media was replaced with 10% formalin in RPMI 1640. Red blood cells were stained with 10 ug/mL propidium iodide (Sigma-Aldrich) in PBS at room temperature for 1 hour and infected cells counted with FACS Calibur flow cytometer (BD Biosciences). Four replicates were carried out, each using a separate parasite culture passage. Relative changes in growth were normalized to controls set at 1 and analyzed by one-sample t-test.

A further data set deals with Anopheles stephensi. Put plainly: Mosquito egg production and viability. Format: in vivo. The following applies: single ABA-supplemented uninfected bloodmeal. On the procedure: The egg laying rate and hatch rate were analyzed using Fisher's exact test. […] Each dot represents the clutch size of a single mosquito. Clutch size was analyzed by unpaired t-test.
Setting [2] is: infected mice, day 7 post-infection.

On to `CC1=CC(=O)CC(C)(C)[C@@]1(O)/C=C/C(C)=C\C(=O)O` (racemic) [ABA, (2Z,4E)-5-[(1S)-1-hydroxy-2,6,6-trimethyl-4-oxocyclohex-2-en-1-yl]-3-methylpenta-2,4-dienoic acid], for which the “phosphorylation of AMPK” value with AMPK was “alters phosphorylation”. The lethargy at necropsy result in data set [1] (day 7, compared to controls) is “less lethargic”. In addition, the daily weight change entry in data set [1] (over the course of infection) is on record as “not different”. Besides, in the data set on APL1, the APL1 expression entry is recorded as “increased”. Besides, in the data set on TAK, the TAK phosphorylation entry is on record as “increasing”. For the same compound, in the data set on IgG1 and IgG2a, the “levels of IgG1 in plasma” value is reported as “increases” and the “levels of IgG2a in plasma” value is “increases”. In addition, the “number of sinusoidal leukocytes in the liver” value with liver (absence of infection) is on record as “decreased”. Further, in the data set with liver (setting [2]), the “adhered leukocytes in the liver” value was “fewer” and the “microabscesses in the liver” value is “fewer”. In addition, the “hemozoin deposition, pigment, portal tract inflammation, extramedullary hematopoeisis, Kupffer cell density” value with liver (liver, P. yoelii-infected mice) is given as “not altered”. Further, in the data set with MAPK (erk, jnk, p38), the MAPK phosphorylation result is on record as “does not alter”. In addition, in the data set with P. falciparum NF54, the asexual growth entry is recorded as “no effect”. For the same compound, in the data set with Anopheles stephensi, the “egg production or viability” value is “does not alter”.

These data come from patent US10154974B1, “Use of abscisic acid for the prevention and treatment of malaria” (The Regents of the University of California, priority 2015, dated 2018).
